Assay [1] has as its target T1, Endothelin receptor type B (Homo sapiens, UniProt P24530).
T1 sequence (P24530 whole entry): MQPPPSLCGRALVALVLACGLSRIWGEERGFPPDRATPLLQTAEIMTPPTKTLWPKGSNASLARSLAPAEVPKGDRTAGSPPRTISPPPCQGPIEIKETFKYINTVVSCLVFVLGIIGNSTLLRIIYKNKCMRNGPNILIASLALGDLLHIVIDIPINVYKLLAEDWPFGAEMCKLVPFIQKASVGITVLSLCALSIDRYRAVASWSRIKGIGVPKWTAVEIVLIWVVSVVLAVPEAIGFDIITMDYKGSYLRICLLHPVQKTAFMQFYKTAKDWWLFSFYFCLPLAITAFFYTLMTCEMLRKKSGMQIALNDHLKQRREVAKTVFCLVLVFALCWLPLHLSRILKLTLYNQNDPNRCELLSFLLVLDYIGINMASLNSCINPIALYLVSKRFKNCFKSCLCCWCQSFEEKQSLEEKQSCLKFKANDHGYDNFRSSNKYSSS
Briefly: In vitro binding affinity in a radioligand binding experiment by competition with [125I]-labeled endothelin-1 for ETB receptor.

The target of another assay is T2, Endothelin-1 receptor (Homo sapiens, UniProt P25101).
T2 sequence (P25101 whole entry): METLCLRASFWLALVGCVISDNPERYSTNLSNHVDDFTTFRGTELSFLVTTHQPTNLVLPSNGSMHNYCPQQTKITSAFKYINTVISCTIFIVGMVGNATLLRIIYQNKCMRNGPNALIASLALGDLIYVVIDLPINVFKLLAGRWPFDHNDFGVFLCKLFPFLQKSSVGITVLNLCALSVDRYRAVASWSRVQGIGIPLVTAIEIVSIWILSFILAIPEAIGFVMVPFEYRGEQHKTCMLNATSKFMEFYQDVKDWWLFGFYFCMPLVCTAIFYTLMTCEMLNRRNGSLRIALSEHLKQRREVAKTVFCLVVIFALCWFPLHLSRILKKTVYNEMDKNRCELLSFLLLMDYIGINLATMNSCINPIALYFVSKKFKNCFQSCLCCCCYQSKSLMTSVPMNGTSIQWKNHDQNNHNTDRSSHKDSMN
Kind of assay: In vitro binding affinity in a radioligand binding experiment by competition with [125I]-labeled endothelin-1 for ETA receptor.

Assay [2] deals with T3, Endothelin receptor type B (Homo sapiens) (UniProt P24530).
T3 sequence (whole entry): T1 sequence (P24530 whole entry)
Kind of assay: Percent inhibition against ETB receptor binding at a concentration of 100 uM.

These results are taken from ChEMBL document CHEMBL1130505, “2-Aryloxycarbonylthiophene-3-sulfonamides: Highly potent and etA selective endothelin receptor antagonists” (Bioorg Med Chem Lett, 1997).

The structures appear in SMILES notation.

Take `COC(=O)c1sccc1S(=O)(=O)Nc1onc(C)c1Cl`: the IC50 (usually the concentration that inhibits the measured activity by half) in assay [1] was over 100 µM; at Endothelin-1 receptor, 1.09 µM. In addition, the inhibition (as a rule, the drop in the measured response relative to a control, in per cent) in assay [2] is under 50%.
On the same counts, the results for `Cc1noc(NS(=O)(=O)c2ccsc2C(=O)Nc2ccccc2)c1C` are over 100 µM, 0.55 µM and under 50%.
In the same order, the values of `Cc1noc(NS(=O)(=O)c2ccsc2C(=O)O)c1Br` are over 100 µM, 10.2 µM and under 50%.
Regarding `Cc1noc(NS(=O)(=O)c2ccsc2C(=O)Oc2ccccc2)c1Br`, the IC50 in assay [1] was over 100 µM. For the same compound, the inhibition in assay [2] was under 50%.
Turning to `Cc1ccc(OC(=O)c2sccc2S(=O)(=O)Nc2onc(C)c2C)cc1`, the IC50 in assay [1] was over 100 µM; at Endothelin-1 receptor, 2.52 µM. Moreover, the inhibition in assay [2] was under 50%.
On the same counts, the results for `Cc1noc(NS(=O)(=O)c2ccsc2C(=O)Nc2ccccc2)c1Cl` are over 100 µM, 0.148 µM and under 50%.
Consider `Cc1ccc(OC(=O)c2sccc2S(=O)(=O)Nc2onc(C)c2C)c(C)c1`, for which the figures for the IC50 (in assay [1]; on Endothelin-1 receptor) were over 100 µM and 0.27 µM, respectively. In addition, in assay [2], the inhibition was under 50%.
`Cc1noc(NS(=O)(=O)c2ccsc2C(=O)Oc2ccccc2)c1Cl`: the IC50 in assay [1] is over 100 µM. This compound came in with an inhibition in assay [2] of under 50%.
With `Cc1noc(NS(=O)(=O)c2ccsc2C(=O)O)c1C`, the IC50 is over 100 µM in assay [1] and 6.06 µM on Endothelin-1 receptor. Also, the inhibition in assay [2] was under 50%.
Turning to `Cc1ccc(OC(=O)c2sccc2S(=O)(=O)Nc2onc(C)c2Cl)cc1`, in assay [1], the IC50 was over 100 µM. This compound showed an inhibition in assay [2] of under 50%.
`Cc1noc(NS(=O)(=O)c2ccsc2C(=O)Oc2ccc3c(c2)OCO3)c1Br`: the IC50 in assay [1] amounted to 5.74 µM; at Endothelin-1 receptor it was 0.0089 µM.
Turning to `COC(=O)c1sccc1S(=O)(=O)Nc1onc(C)c1C`, the IC50 was over 100 µM in assay [1] and 3.47 µM on Endothelin-1 receptor. In assay [2], this compound had an inhibition of under 50%.
On to `Cc1noc(NS(=O)(=O)c2ccsc2C(=O)Oc2ccccc2)c1C`, for which the IC50 was over 100 µM in assay [1] and 4.12 µM at Endothelin-1 receptor. The inhibition in assay [2] is under 50%.
On to `Cc1ccccc1OC(=O)c1sccc1S(=O)(=O)Nc1onc(C)c1Br`, for which the IC50 in assay [1] was over 100 µM. In addition, the inhibition in assay [2] was under 50%.
Take `COC(=O)c1sccc1S(=O)(=O)Nc1onc(C)c1Br`: the figures for the IC50 (in assay [1]; at Endothelin-1 receptor) were over 100 µM and 0.74 µM, respectively. The compound further had an inhibition in assay [2] of under 50%.
Turning to `Cc1ccc(OC(=O)c2sccc2S(=O)(=O)Nc2onc(C)c2Br)cc1`, the IC50 in assay [1] is 9.21 µM; at Endothelin-1 receptor, 0.0093 µM.
For the compound `Cc1noc(NS(=O)(=O)c2ccsc2C(=O)O)c1Cl`, the values for the IC50 (in assay [1]; on Endothelin-1 receptor) were over 100 µM and 1.06 µM, respectively. The compound also returned an inhibition in assay [2] of under 50%.
On to `Cc1noc(NS(=O)(=O)c2ccsc2C(=O)Oc2ccc3c(c2)OCO3)c1Cl`, for which the figures for the IC50 (in assay [1]; on Endothelin-1 receptor) were 7.94 µM and 0.0083 µM, respectively.
For the compound `Cc1noc(NS(=O)(=O)c2ccsc2C(=O)Oc2ccc3c(c2)OCO3)c1C`, the IC50 in assay [1] came out at 48.7 µM; on Endothelin-1 receptor, 6.14 µM.
In assay [1], `Cc1cccc(OC(=O)c2sccc2S(=O)(=O)Nc2onc(C)c2Br)c1` had an IC50 of over 100 µM. In assay [2], the inhibition is under 50%.
